In patent US20110190267A1, “PRODRUGS OF OPIOIDS AND USES THEREOF” (priority 2010, published 2011):
Values joined by “and” are separate entries in the source; they are usually repeats but may differ in a detail not shown here. Equal entries are not always repeated. Where two headings read alike, the source gives them in different places. Marks after values point to notes of the source that are not given here.

Experiments:
[1] = Pharmacokinetics of dextrorphan or dextrorphan PABA carbamate, monkeys (Example 47); assay type: in vivo, cynomolgus monkeys; conditions: for half-life: read-out: t½ (converted)
Protocol: (§1) Blood samples were taken at various times after administration, and submitted to analysis for the parent drug and prodrug using a validated LC-MS-MS assay. Pharmacokinetic parameters derived from the plasma analytical data were determined using Win Nonlin.

[2] = Pharmacokinetics of dextrorphan or dextrorphan PABA carbamate, dogs (Example 48); assay type: in vivo, beagle dogs
Protocol: Data were normalized to 1 mg/kg

[3] = Pharmacokinetics of levorphanol or levorphanol PABA carbamate, dogs (Example 46); assay type: in vivo, Beagle dogs; conditions: for AUC / Cmax / Tmax / half-life / T>50%Cmax: levorphanol in plasma after oral levorphanol, 5 mg free base equivalents/kg, female beagle dog; for AUC: AUClast; for half-life / T>50%Cmax: maximum of 30% extrapolation allowed; for half-life: read-out: t½ (converted)
Protocol: as §1

[4] = Pharmacokinetics of levorphanol or levorphanol PABA carbamate, monkeys (Example 45); assay type: in vivo; conditions: levorphanol in plasma after oral levorphanol, 5 mg free base equivalent/kg; for half-life: read-out: t½ (converted)
Protocol: as §1

in vivo = conditions: male, rat, plasma, po, 10 mg naloxone free base equivalents/kg, naloxone in plasma after oral naloxone, 10 mg free base equivalents/kg, male rats; for half-life: t½
Protocol: Blood samples were taken at various times after administration and submitted to analysis for the parent drug and pro-drug using a validated LC-MS-MS assay. Pharmacokinetic parameters derived from the plasma analytical data were determined using Win Nonlin.

[5] = Pharmacokinetics of R,R tapentadol or R,R tapentadol PABA carbamate, monkeys (Example 40); assay type: in vivo, cynomolgus monkeys; conditions: R,R tapentadol in plasma after oral R,R tapentadol, 3 mg free base equivalents/kg
Protocol: as §1

[6] = Pharmacokinetics of R,R tapentadol or R,R tapentadol PABA carbamate, dogs (Example 41); assay type: in vivo, Beagle dogs; conditions: for AUC / Cmax / T>50%Cmax / Tmax / t½: RR-tapentadol in plasma after oral RR-tapentadol, 1 mg free base equivalents/kg, female beagle dogs
Protocol: as §1

[7] = Pharmacokinetics of racemic tapentadol or tapentadol PABA carbamate, monkeys (Example 39)
[8] = dextrorphan in plasma after oral dextrorphan, 5 mg free base equivalents/kg, male cynomolgus monkeys, single animal
[9] = dextrorphan in plasma after oral dextrorphan, 5 mg free base equivalents/kg, female dogs, single animal
[10] = male cynomolgus monkeys, single animal
[11] = male, cynomolgus monkey, plasma, po, 5 mg levorphanol free base equivalents/kg, Mean
[12] = male, cynomolgus monkey, plasma, po, 5 mg levorphanol free base equivalents/kg, single animal
[13] = naloxone in plasma after oral naloxone, 10 mg free base equivalents/kg, male rats, single animal

Structure (SMILES): CN1CC[C@@]23CCCC[C@@H]2[C@@H]1Cc1ccc(O)cc13 [dextrorphan]
- T>50%Cmax ([1]; dextrorphan in plasma after oral dextrorphan, 5 mg free base equivalents/kg, male cynomolgus monkeys, Mean): 3.5 h
- Cmax [1, 8]: 3.0 ng/mL and 3.5 ng/mL and 5.5 ng/mL
- T>50%Cmax [1, 8]: 3.7 h and 3.5 h and 4.5 h and 2.5 h and 3.3 h
- Tmax [1, 8]: 1.0 h
- AUC ([1]; dextrorphan in plasma after oral dextrorphan, 5 mg free base equivalents/kg, male cynomolgus monkeys, single animal (animal 12: extrapolation of AUC data 39%)): 14* ng · h/mL and 19 ng · h/mL (2×) and 13 ng · h/mL
- AUC ([1]; male, cynomolgus monkey, plasma, po, 5 mg dextrorphan free base equivalents/kg, dextrorphan in plasma after oral dextrorphan, 5 mg free base equivalents/kg, male cynomolgus monkeys, Mean, read-out: AUC): 17 ng·h/mL
- Cmax ([1]; male, cynomolgus monkey, plasma, po, 5 mg dextrorphan free base equivalents/kg, dextrorphan in plasma after oral dextrorphan, 5 mg free base equivalents/kg, male cynomolgus monkeys, Mean, read-out: Cmax): 3.9 ng/mL
- Tmax ([1]; male, cynomolgus monkey, plasma, po, 5 mg dextrorphan free base equivalents/kg, dextrorphan in plasma after oral dextrorphan, 5 mg free base equivalents/kg, male cynomolgus monkeys, Mean, read-out: Tmax): 1.6 h
- half-life ([1]; male, cynomolgus monkey, plasma, po, 5 mg dextrorphan free base equivalents/kg, dextrorphan in plasma after oral dextrorphan, 5 mg free base equivalents/kg, male cynomolgus monkeys, Mean): 2.1 h
- Cmax ([1]; male, cynomolgus monkey, plasma, po, 5 mg dextrorphan free base equivalents/kg, dextrorphan in plasma after oral dextrorphan, 5 mg free base equivalents/kg, male cynomolgus monkeys, single animal, read-out: Cmax): 4.3 ng/mL
- Tmax ([1]; male, cynomolgus monkey, plasma, po, 5 mg dextrorphan free base equivalents/kg, dextrorphan in plasma after oral dextrorphan, 5 mg free base equivalents/kg, male cynomolgus monkeys, single animal, read-out: Tmax): 2 h
- half-life ([1]; male, cynomolgus monkey, plasma, po, 5 mg dextrorphan free base equivalents/kg, dextrorphan in plasma after oral dextrorphan, 5 mg free base equivalents/kg, male cynomolgus monkeys, single animal): 2.3 h
- AUC ([1]; male, cynomolgus monkey, plasma, po, 5 mg dextrorphan free base equivalents/kg, read-out: AUC): 20 ng·h/mL
- T>50%Cmax ([2]; dextrorphan in plasma after oral dextrorphan, 5 mg free base equivalents/kg, female dogs, Mean): 2.4 h
- AUC [2, 9]: 18.9 ng·h/mL and 13.4 ng·h/mL and 8.3 ng·h/mL and 10.7 ng·h/mL and 12.4 ng·h/mL
- Cmax [2, 9]: 4.2 ng/mL and 2.1 ng/mL and 3.8 ng/mL and 2.7 ng/mL
- T>50%Cmax [2, 9]: 2.9 h (2×) and 2.4 h and 2.2 h and 1.6 h
- Tmax [2, 9]: 1.0 h
- T>50% Cmax of dextrorphan ([2]; dogs, oral): 2.4 h
- AUC ([2]; female, beagle, dog, plasma, po, 5 mg dextrorphan free base equivalents/kg, dextrorphan in plasma after oral dextrorphan, 5 mg free base equivalents/kg, female dogs, Mean, read-out: AUC): 12.7 ng·h/mL
- Cmax ([2]; female, beagle, dog, plasma, po, 5 mg dextrorphan free base equivalents/kg, dextrorphan in plasma after oral dextrorphan, 5 mg free base equivalents/kg, female dogs, Mean, read-out: Cmax): 3.3 ng/mL
- Tmax ([2]; female, beagle, dog, plasma, po, 5 mg dextrorphan free base equivalents/kg, dextrorphan in plasma after oral dextrorphan, 5 mg free base equivalents/kg, female dogs, Mean, read-out: Tmax): 0.6 h
- Cmax ([2]; female, beagle, dog, plasma, po, 5 mg dextrorphan free base equivalents/kg, dextrorphan in plasma after oral dextrorphan, 5 mg free base equivalents/kg, female dogs, single animal, read-out: Cmax): 3.6 ng/mL
- Tmax ([2]; female, beagle, dog, plasma, po, 5 mg dextrorphan free base equivalents/kg, dextrorphan in plasma after oral dextrorphan, 5 mg free base equivalents/kg, female dogs, single animal, read-out: Tmax): 0.5 h
- half-life ([2]; female, beagle, dog, plasma, po, 5 mg free base equivalents/kg, dextrorphan in plasma after oral dextrorphan, 5 mg free base equivalents/kg, female dogs, Mean, read-out: t½ (converted)): 3.1 h

Structure (SMILES): CN1CC[C@]23CCCC[C@H]2[C@H]1Cc1ccc(O)cc13 [levorphanol]
- T>50%Cmax of levorphanol ([3]; dogs, oral 5 mg levorphanol free base equivalents/kg): 1.4 h
- AUC ([3]; female, beagle, dog, plasma, po, 5 mg levorphanol free base equivalents/kg, Mean, read-out: AUC): 10 ng·h/mL
- Cmax ([3]; female, beagle, dog, plasma, po, 5 mg levorphanol free base equivalents/kg, Mean, read-out: Cmax): 3.8 ng/mL
- Tmax ([3]; female, beagle, dog, plasma, po, 5 mg levorphanol free base equivalents/kg, Mean, read-out: Tmax): 0.6 h
- half-life ([3]; female, beagle, dog, plasma, po, 5 mg levorphanol free base equivalents/kg, Mean): 1.2 h
- half-life ([3]; female, beagle, dog, plasma, po, 5 mg levorphanol free base equivalents/kg, single animal): 0.8 h
- Tmax ([3]; female, beagle, dog, plasma, po, 5 mg levorphanol free base equivalents/kg, single animal, read-out: Tmax): 1 h
- AUC ([3]; single animal): 5.8 ng·h/mL and 19 ng·h/mL and 16 ng·h/mL and 6.6 ng·h/mL and 2.8 ng·h/mL
- T>50%Cmax ([3]; Mean): 1.4 h
- T>50%Cmax ([3]; single animal): 1.5 h and 1.3 h
- Cmax ([3]; single animal): 4.2 ng/mL and 3.2 ng/mL and 5.3 ng/mL and 4.3 ng/mL and 1.9 ng/mL
- Tmax ([3]; single animal): 0.5 h
- AUC [4, 10]: 28 ng·h/mL and 34 ng·h/mL and 27 ng·h/mL
- Cmax [4, 10]: 6.6 ng/mL and 8.2 ng/mL and 7.6 ng/mL
- t½ [4, 10]: 2.1 h and 1.6 h
- Tmax [4, 11]: 1.5 h
- AUC ([4]; male, cynomolgus monkey, plasma, po, 5 mg levorphanol free base equivalents/kg, Mean, read-out: AUC): 28 ng·h/mL
- Cmax ([4]; male, cynomolgus monkey, plasma, po, 5 mg levorphanol free base equivalents/kg, Mean, read-out: Cmax): 7.1 ng/mL
- half-life [4, 11]: 1.7 h
- Tmax [4, 12]: 2 h
- AUC ([4]; male, cynomolgus monkey, plasma, po, 5 mg levorphanol free base equivalents/kg, single animal, read-out: AUC): 22 ng·h/mL
- Cmax ([4]; male, cynomolgus monkey, plasma, po, 5 mg levorphanol free base equivalents/kg, single animal, read-out: Cmax): 6.2 ng/mL
- half-life [4, 12]: 1.5 h

Structure (SMILES): C=CCN1CC[C@]23c4c5ccc(O)c4O[C@H]2C(=O)CC[C@@]3(O)[C@H]1C5 [naloxone]
- AUC (in vivo; Mean): 22 ng·h/mL
- AUC (in vivo; single animal): 22 ng·h/mL
- Cmax (in vivo; Mean): 6.8 ng/mL
- Cmax (in vivo; single animal): 7.1 ng/mL
- Tmax (in vivo; Mean): 0.35 h
- Tmax (in vivo; single animal): 0.25 h
- half-life (in vivo; Mean): 3.9 h
- half-life (in vivo; single animal): 3.9 h
- T>50%Cmax (naloxone in plasma after oral naloxone, 10 mg free base equivalents/kg, male rats, Mean): 2.1 h
- Cmax [13]: 6.3 ng/mL and 7.6 ng/mL and 8.1 ng/mL and 4.9 ng/mL
- T>50%Cmax [13]: 1.2 h and 1.5 h and 1.8 h and 1.3 h and 4.5 h
- Tmax [13]: 0.50 h
- t½ [13]: 3.8 h
- variability around bioavailability of naloxone (rats, oral 10 mg/kg): over 10%

Structure (SMILES): CC[C@@H](c1cccc(O)c1)[C@@H](C)CN(C)C [R,R tapentadol]
- AUC ([5]; Mean): 7.6 ng·h/mL
- Cmax ([5]; Mean): 2.2 ng/mL
- T>50%Cmax ([5]; Mean): 2.8 h
- Tmax ([5]; Mean): 1.1 h
- t½ ([5]; Mean): 1.6 h
- AUC ([5]; single animal): 10 ng·h/mL and 8.6 ng·h/mL and 7.7 ng·h/mL and 4.0 ng·h/mL
- Cmax ([5]; single animal): 2.9 ng/mL and 2.6 ng/mL and 2.1 ng/mL and 1.1 ng/mL
- T>50%Cmax ([5]; single animal): 2.8 h (2×) and 2.7 h and 2.9 h
- Tmax ([5]; single animal): 0.5 h and 1.0 h (2×) and 2.0 h
- t½ ([5]; single animal): 1.5 h (2×) and 1.7 h and 1.6 h
- AUC ([6]; Mean): 4.16 ng·h/mL
- Cmax ([6]; Mean): 3.21 ng/mL
- T>50%Cmax ([6]; Mean): 0.7 h
- Tmax ([6]; Mean): 0.44 h
- t½ ([6]; Mean): 0.6 h
- AUC ([6]; single animal): 1.74 ng·h/mL and 8.35 ng·h/mL and 2.38 ng·h/mL
- Cmax ([6]; single animal): 1.25 ng/mL and 8.48 ng/mL and 0.39 ng/mL and 2.71 ng/mL
- T>50%Cmax ([6]; single animal): 1.0 h and 0.6 h (2×)
- Tmax ([6]; single animal): 0.50 h (3×) and 0.25 h
- t½ ([6]; single animal): 0.7 h and 0.6 h and 0.5 h
- T50% Cmax of R,R tapentadol ([6]; dogs, oral 1 mg R,R tapentadol free base equivalents/kg): 0.7 h

Structure (SMILES): CC[C@@H](c1cccc(O)c1)[C@@H](C)CN(C)C [tapentadol]
- half-life ([7]; cynomolgus monkey, plasma, po, 3 mg/kg): 1.2 h
- AUC ([7]; male, cynomolgus monkey, plasma, po, 1 mg free base equivalents/kg): 5.4 ng·h/mL
- Cmax ([7]; male, cynomolgus monkey, plasma, po, 1 mg free base equivalents/kg, Cmax * (estimated), racemic tapentadol (all four isomers), oral tapentadol scaled up from 1 to 3 mg free base equivalents/kg, monkeys, n = 5, LLOQ taken as Cmax): 2.4 ng/mL
- AUC ([7]; male, cynomolgus monkey, plasma, po, 1 mg/kg tapentadol free base equivalents/kg): < 5.4 ng·h/mL
- plasma concentrations of tapentadol, each isomer (LLOQ) ([7]; oral tapentadol 1 mg/kg, monkeys): < 0.4 ng/mL
- Cmax * (estimated) ([7]; racemic tapentadol (all four isomers), oral tapentadol scaled up from 1 to 3 mg free base equivalents/kg, monkeys, n = 5, LLOQ taken as Cmax): <2.4 ng/mL
